In brackets after ≈: the same amount, converted by molar mass.
What was measured:
Staphylococcus aureus [1] = test: Antibacterial activity against wild type methicillin resistant Staphylococcus aureus 4561/A assessed as reduction in microbial growth incubated for 24 hrs by microdilution assay; type: functional
Staphylococcus aureus [2] = test: Antibacterial activity against wild type methicillin resistant Staphylococcus aureus 4968/C assessed as reduction in microbial growth incubated for 24 hrs by microdilution assay; type: functional
Staphylococcus aureus [3] = test: Antibacterial activity against wild type methicillin resistant Staphylococcus aureus 5017/C assessed as reduction in microbial growth incubated for 24 hrs by microdilution assay; type: functional
Staphylococcus aureus [4] = test: Antibacterial activity against wild type Staphylococcus aureus 4557/A assessed as reduction in microbial growth incubated for 24 hrs by microdilution assay; type: functional
Staphylococcus aureus [5] = test: Antibacterial activity against […] Staphylococcus aureus 4463/A assessed as reduction in microbial growth incubated for 24 hrs by microdilution assay; type: functional
Staphylococcus aureus [6] = test: Antibacterial activity against wild type Staphylococcus aureus 4904/C assessed as reduction in microbial growth incubated for 24 hrs by microdilution assay; type: functional
Staphylococcus aureus [7] = test: Antibacterial activity against wild type Staphylococcus aureus 4883/C assessed as reduction in microbial growth incubated for 24 hrs by microdilution assay; type: functional
Staphylococcus aureus [8] = test: Antibacterial activity against wild type Staphylococcus aureus 4566/A assessed as reduction in microbial growth incubated for 24 hrs by microdilution assay; type: functional
Staphylococcus aureus [9] = test: Antibacterial activity against wild type Staphylococcus aureus 4504/A assessed as reduction in microbial growth incubated for 24 hrs by microdilution assay; type: functional
Staphylococcus aureus [10] = test: Antibacterial activity against wild type Staphylococcus aureus 4740/B assessed as reduction in microbial growth incubated for 24 hrs by microdilution assay; type: functional
Staphylococcus aureus [11] = test: Antibacterial activity against wild type Staphylococcus aureus 4717/B assessed as reduction in microbial growth incubated for 24 hrs by microdilution assay; type: functional
Staphylococcus aureus [12] = test: Antibacterial activity against wild type Staphylococcus aureus 4738/B assessed as reduction in microbial growth incubated for 24 hrs by microdilution assay; type: functional
Staphylococcus aureus [13] = test: Antibacterial activity against […] Staphylococcus aureus 4461/A assessed as reduction in microbial growth incubated for 24 hrs by microdilution assay; type: functional
Staphylococcus aureus [14] = test: Antibacterial activity against wild type Staphylococcus aureus 4679/B assessed as reduction in microbial growth incubated for 24 hrs by microdilution assay; type: functional
Staphylococcus aureus [15] = test: Antibacterial activity against wild type Staphylococcus aureus 5079/C assessed as reduction in microbial growth incubated for 24 hrs by microdilution assay; type: functional
Staphylococcus aureus [16] = test: Antibacterial activity against wild type Staphylococcus aureus 4788/B assessed as reduction in microbial growth incubated for 24 hrs by microdilution assay; type: functional
Staphylococcus aureus [17] = test: Antibacterial activity against wild type Staphylococcus aureus 78/CF assessed as reduction in microbial growth incubated for 24 hrs by microdilution assay; type: functional
Staphylococcus aureus [18] = test: Antibacterial activity against wild type Staphylococcus aureus 77/CF assessed as reduction in microbial growth incubated for 24 hrs by microdilution assay; type: functional
Staphylococcus aureus [19] = test: microbe, parasite or virus in culture; conditions: 4862/C, 24 h
Description: Antibacterial activity against wild type Staphylococcus aureus 4862/C assessed as reduction in microbial growth incubated for 24 hrs by microdilution assay

Staphylococcus aureus [20] = test: microbe, parasite or virus in culture; conditions: 4880/C, 24 h
Description: Antibacterial activity against wild type Staphylococcus aureus 4880/C assessed as reduction in microbial growth incubated for 24 hrs by microdilution assay

Staphylococcus aureus [21] = test: Antibacterial activity against […] Staphylococcus aureus 4460/A assessed as reduction in microbial growth incubated for 24 hrs by microdilution assay; type: functional
Staphylococcus aureus [22] = test: Antibacterial activity against wild type Staphylococcus aureus 4482/A assessed as reduction in microbial growth incubated for 24 hrs by microdilution assay; type: functional
Staphylococcus aureus [23] = test: Antibacterial activity against wild type Staphylococcus aureus 4502/A assessed as reduction in microbial growth incubated for 24 hrs by microdilution assay; type: functional
Staphylococcus aureus [24] = test: Antibacterial activity against wild type Staphylococcus aureus 4515/A assessed as reduction in microbial growth incubated for 24 hrs by microdilution assay; type: functional
Enterococcus faecalis = test: Antibacterial activity against Enterococcus faecalis ATCC 29212 = CCM 4224 assessed as inhibition of bacterial growth incubated for 24 hrs by microdilution assay; type: functional
Staphylococcus aureus [25] = test: Antibacterial activity against Staphylococcus aureus ATCC 29213 = CCM 4223 assessed as inhibition of bacterial growth incubated for 24 hrs by microdilution assay; type: functional
Staphylococcus aureus [26] = test: Antibacterial activity against Staphylococcus aureus ATCC 29213 = CCM 4223 assessed as inhibition of bacterial growth incubated for 24 hrs in presence of BSA by microdilution assay; type: functional
Escherichia coli [27] = test: Antibacterial activity against Escherichia coli ATCC 25922 = CCM 3954 assessed as inhibition of bacterial growth incubated for 24 hrs by microdilution assay; type: functional
Escherichia coli [28] = test: Antibacterial activity against Escherichia coli ATCC 25922 = CCM 3954 assessed as inhibition of bacterial growth incubated for 24 hrs in presence of BSA by microdilution assay; type: functional
Pseudomonas aeruginosa [29] = test: Antibacterial activity against Pseudomonas aeruginosa ATCC 27853 = CCM 3955 assessed as inhibition of bacterial growth incubated for 24 hrs by microdilution assay; type: functional
[30] = Hemolytic activity in human RBC assessed as haemoglobin release measured after 3 hr; type: toxicity, cell-based, Erythrocyte; conditions: red blood cells (erythrocytes)
[31] = Gradient chromatographic hydrophobicity index of the compound at pH 3.7 by HPLC analysis; type: ADME
[32] = test system: Staphylococcus epidermidis; test: Antibacterial activity against Staphylococcus epidermidis CCM 7221 assessed as inhibition of bacterial growth incubated for 24 hrs by microdilution assay; type: functional
Staphylococcus aureus [33] = test: Antibacterial activity against methicillin resistant Staphylococcus aureus 4591/A assessed as reduction in microbial growth incubated for 24 hrs by microdilution assay; type: functional
Escherichia coli [34] = test: Antibacterial activity against multidrug-resistant Escherichia coli CE5556 expressing CTX-M-15 assessed as reduction in microbial growth incubated for 24 hrs by microdilution assay; type: functional
Enterococcus faecium = test: Antibacterial activity against vancomycin resistant Enterococcus faecium 419/ANA assessed as reduction in microbial growth incubated for 24 hrs by microdilution assay; type: functional
Pseudomonas aeruginosa [35] = test: Antibacterial activity against multidrug-resistant Pseudomonas aeruginosa assessed as reduction in microbial growth incubated for 24 hrs by microdilution assay; type: functional
[36] = Cytotoxicity against human HepG2 cells assessed as reduction in cell viability; type: toxicity, cell-based

| SMILES | MIC (Staphylococcus aureus [1]) [µg/mL] | MIC (Staphylococcus aureus [2]) [µg/mL] | MIC (Staphylococcus aureus [3]) [µg/mL] | MIC (Staphylococcus aureus [4]) [µg/mL] | MIC (Staphylococcus aureus [5]) [µg/mL] | MIC (Staphylococcus aureus [6]) [µg/mL] | MIC (Staphylococcus aureus [7]) [µg/mL] | MIC (Staphylococcus aureus [8]) [µg/mL] | MIC (Staphylococcus aureus [9]) [µg/mL] | MIC (Staphylococcus aureus [10]) [µg/mL] | MIC (Staphylococcus aureus [11]) [µg/mL] | MIC (Staphylococcus aureus [12]) [µg/mL] | MIC (Staphylococcus aureus [13]) [µg/mL] | MIC (Staphylococcus aureus [14]) [µg/mL] | MIC (Staphylococcus aureus [15]) [µg/mL] | MIC (Staphylococcus aureus [16]) [µg/mL] | MIC (Staphylococcus aureus [17]) [µg/mL] | MIC (Staphylococcus aureus [18]) [µg/mL] | MIC (Staphylococcus aureus [19]) [µg/mL] | MIC (Staphylococcus aureus [20]) [µg/mL] | also measured |
| --- | --- | --- | --- | --- | --- | --- | --- | --- | --- | --- | --- | --- | --- | --- | --- | --- | --- | --- | --- | --- | --- |
| O=C(O)c1cn(C2CC2)c2cc(N3CCNCC3)c(F)cc2c1=O [CIPROFLOXACIN] | > 8 | > 8 | > 8 | 0.25 | 0.25 | 0.25 | 0.25 | 0.25 | 0.25 | 0.5 | 0.25 | 0.25 | 0.25 | 0.25 | 0.25 | 0.063 | 0.25 | 0.5 | 0.25 (≈ 0.754 µM) | 0.25 (≈ 0.754 µM) |  |
| Cc1onc(-c2ccccc2)c1C(=O)N[C@@H]1C(=O)N2[C@@H]1SC(C)(C)[C@@H]2C(=O)O [OXACILLIN] | > 8 | > 16 | > 16 | 0.25 | 0.25 | 0.25 | 0.25 | 0.25 | 0.25 | 0.25 | 0.25 | 0.25 | 0.25 | 0.25 | 0.25 | 0.125 | 0.25 | 0.25 | 0.25 (≈ 0.623 µM) | 0.25 (≈ 0.623 µM) | MIC (Staphylococcus aureus [21]): 0.25 µg/mL; MIC (Staphylococcus aureus [22]): 0.25 µg/mL; MIC (Staphylococcus aureus [23]): 0.25 µg/mL; MIC (Staphylococcus aureus [24]): 0.25 µg/mL |
| CC1(C)S[C@@H]2[C@H](NC(=O)[C@H](N)c3ccccc3)C(=O)N2[C@H]1C(=O)O [AMPICILLIN] |  |  | > 16 | 0.5 | 0.5 | 0.5 | 0.5 | 0.5 | 0.5 | 0.5 | 0.5 | 0.5 | 1 | 1 | 0.5 | 0.5 | 0.5 | 0.5 | 1 (≈ 2.86 µM) | 0.5 (≈ 1.43 µM) | MIC (Staphylococcus aureus [21]): 1 µg/mL; MIC (Staphylococcus aureus [22]): 1 µg/mL; MIC (Staphylococcus aureus [23]): 0.5 µg/mL; MIC (Staphylococcus aureus [24]): 0.5 µg/mL |
| Cl.Cl.Cl.Cl.Cl.Cl.NCCCN(CCCN)CCP(=O)(OCCCOP(=O)(CCN(CCCN)CCCN)OCCC12CC3CC(CC(C3)C1)C2)OCCC12CC3CC(CC(C3)C1)C2 (centres undefined) |  |  |  |  |  |  |  |  |  |  |  |  |  |  |  |  |  |  |  |  | MIC (Enterococcus faecalis): 2 µg/mL; MIC (Staphylococcus aureus [25]): 1 µg/mL; MIC (Staphylococcus aureus [26]): 2 µg/mL; MIC (Escherichia coli [27]): 2 µg/mL; MIC (Escherichia coli [28]): 1 µg/mL; MIC (Pseudomonas aeruginosa [29]): 16 µg/mL; HC50 at 3 h [30]: 196 µg/mL; CHI [31]: 36.9; MIC [32]: 2 µg/mL; MIC (Staphylococcus aureus [33]): 1 µg/mL; MIC (Escherichia coli [34]): 2 µg/mL; MIC (Enterococcus faecium): 32 µg/mL; MIC (Pseudomonas aeruginosa [35]): 4 µg/mL; CC50 [36]: 93.6 µM |
| CCCCC/C=C\CCOP(=O)(CCN(CCCN)CCCN)OCCCCCOP(=O)(CCN(CCCN)CCCN)OCC/C=C\CCCCC.Cl.Cl.Cl.Cl.Cl.Cl (centres undefined) |  |  |  |  |  |  |  |  |  |  |  |  |  |  |  |  |  |  |  |  | MIC (Enterococcus faecalis): 4 µg/mL; MIC (Staphylococcus aureus [25]): 1 µg/mL; MIC (Staphylococcus aureus [26]): 2 µg/mL; MIC (Escherichia coli [27]): 2 µg/mL; MIC (Escherichia coli [28]): 1 µg/mL; MIC (Pseudomonas aeruginosa [29]): 4 µg/mL; HC50 at 3 h [30]: > 500 µg/mL; CHI [31]: 37.2; MIC [32]: 1 µg/mL; MIC (Staphylococcus aureus [33]): 1 µg/mL; MIC (Escherichia coli [34]): 1 µg/mL; MIC (Enterococcus faecium): 32 µg/mL; MIC (Pseudomonas aeruginosa [35]): 4 µg/mL; CC50 [36]: 97.8 µM |

Source: ChEMBL document CHEMBL5120927, “LEGO-Lipophosphonoxins: A Novel Approach in Designing Membrane Targeting Antimicrobials” (J Med Chem, 2022)
